Data published in publication PMC11609934, “Exploration and characterization of the antimalarial activity of cyclopropyl carboxamides that target the mitochondrial protein, cytochrome b” (European Journal of Medicinal Chemistry, 2024).
Converted amounts (≈) assume the structure as drawn. Where two headings read alike, the source gives them in different places.

Tests used:
[1] = eLogD (shake-flask, pH 7.4); assay type: physicochemical; conditions: 1-octanol/phosphate buffered saline (1:1, v/v), Shake-flask method
Procedure: eLogD. The LogD (pH 7.4) assay was performed using a miniaturized shake flask method. A solution of a pre-saturated mixture of 1-octanol and phosphate buffered saline (PBS) (1:1, v/v) and the test compound (75 μM) was incubated at 25 °C with constant shaking (850 rpm) for 2 h. After incubation the organic and aqueous phases were separated, and samples of each phase transferred to plate for dilution. The organic phase was diluted to 1000-fold and the aqueous phase was diluted 20-fold. The samples were quantitated using LC-MS/MS. The experiment was carried out in duplicate. Propranolol, amitriptyline, and midazolam were used as reference standards.

Rat hepatocyte stability = assay type: in vitro ADME; conditions: pooled rat hepatocytes
Procedure: Rat Hepatocyte Stability. A solution of the test compound in Krebs-Henseliet buffer solution (1 μM) was incubated in pooled rat hepatocytes (1 × 10^6 cells/mL) for 0, 15,30,45, 60, 75 and 90 min at 37 °C (5 % CO2, 95 % relative humidity). The reaction was terminated with the addition of ice-cold acetonitrile containing system suitability standard at designated time points. […] The experiment was carried out in duplicate. Diltiazem, 7-ethoxy coumarin, propranolol, and midazolam were used as reference standards.

[2] = Aqueous solubility (kinetic in PBS, pH 7.4); assay type: physicochemical; conditions: phosphate buffered saline
Procedure: Solubility. The solubility assay was performed using a miniaturized shake flask method. A solution of phosphate buffered saline (PBS) and the test compound (200 μM) was incubated at 25 °C with constant shaking (600 rpm) for 2 h. The samples were filtered using a multiscreen solubility filter plate. The filtrate was half diluted in acetonitrile. A five-point linearity curve was prepared in PBS:acetonitrile (1:1, v/v) at 200, 150, 75, 25 and 2.5 μM. Blank, linearity and test samples (n = 2) were transferred to a UV readable plate and the plate was scanned for absorbance. Best fit calibration curves were constructed using the calibration standards and used to determine the test sample solubility. The experiment was carried out in duplicate. Diethylstilbestrol, haloperidol, and diclofenac sodium were used as reference standards.

[3] = Human liver microsome stability; assay type: in vitro ADME; conditions: pooled human liver microsomes
Procedure: Human Liver Microsome Stability. A solution of the test compounds in phosphate buffer solution (1 μM) was incubated in pooled human liver microsomes (0.5 mg/mL) for 0, 5, 20, 30, 45 and 60 min at 37 °C in the presence and absence of NADPH regeneration system. The reaction was terminated with the addition of ice-cold acetonitrile containing system suitability standard at designated time points. […] The experiment was carried out in duplicate. Verapamil, diltiazem, phenacetin, and imipramine were used as reference standards.

[4] = Human HepG2 growth inhibition assay (Cell TitreGlo, 48 h); assay type: cell-based; conditions: human, HepG2 cells, HepG2 cell growth inhibition over 48 h
Procedure: To establish the SAR, synthesized analogs were assessed against the asexual stage parasite (72 h) using LDH as a proxy for parasite growth inhibition. Cytotoxicity was monitored against the human HepG2 cell line using Cell TitreGlo as a metabolic marker for cell growth. Cyt b inhibitors typically have high lipophilicity, and so calculated physicochemical properties were determined, while in vitro ADME was also collected on representative analogs to gauge their suitability for efficacy studies in a 4-day P. berghei model.
Human HepG2 Growth Inhibition Assay. This is a routine assay undertaken at the Walter and Eliza Hall Institute and the method has been previously published. HepG2 cells were cultured in Dulbeccos modified eagles medium (DMEM) supplemented with 10 % fetal calf serum (FCS), in a humidified incubator at 37 °C and 5 % CO2. Assay plates (Greiner #781098, 384 well, white, tissue culture treated) were prepared by transferring appropriate volumes of 10 mM compound stocks using an Echo555 (Labcyte) such that the starting concentration was 50 μM, with a 1:2-fold dilution series. All wells were backfilled with DMSO to […] such that this remained constant (0.5 % DMSO). The positive growth control was 0.5 % DMSO and the negative growth control was 10 μM Bortezomib. HepG2 cells were seeded with 1000 cells in 50 μL DMEM with 10 % FCS into each well of the assay plates using a Multidrop Combi dispenser (Thermo Scientific). Plates were incubated at 37 °C and 5 % CO2 for 48 h. Cytotoxicity was determined using Cell Titer Glo (Promega) and calculated as a percentage using DMSO as the positive growth control and 10 μM Bortezomib as a negative growth control. EC50 values were calculated by Dotmatics 5.3 and Spotfire 7.11.1 software using a nonlinear regression four-parameter fit analysis. The equation used is sigmoidal dose response (variable slope), Y = bottom + (top − bottom)/(1 + 10((logEC50 − X) × Hill Slope)).

[5] = system: P. falciparum 3D7 parasites; assay: P. falciparum 3D7 asexual stage LDH assay (72 h); assay type: cell-based, Plasmodium falciparum; conditions: for EC50: Plasmodium falciparum, 3D7, 72 h, means and SDs, three or more experiments; for fold loss in Pf 3D7 activity relative to W499 (2): carboxamide variants versus cyclopropyl parent
Procedure: To establish the SAR, synthesized analogs were assessed against the asexual stage parasite (72 h) using LDH as a proxy for parasite growth inhibition. Cytotoxicity was monitored against the human HepG2 cell line using Cell TitreGlo as a metabolic marker for cell growth.
P. falciparum 3D7 Asexual Stage LDH Assay. This is a platform assay is routinely undertaken at the Walter and Eliza Hall Institute and details on the protocol has been previously published. Briefly, 10-point dilution series of the compounds were prepared in 384 well assay plates using an Echo555 (Labcyte). Appropriate volumes of 10 mM compound stocks were transferred into the assay plates such that the starting concentration was 1 μM, with a 1 in 3-fold dilution series. All wells were backfilled with DMSO to 40 nL such that this remained constant (0.1 % DMSO). The positive growth control was 0.1 % DMSO and the negative growth control was 100 nM chloroquine. The parasite inoculum (40 μL) was dispensed into plates containing compounds using a Multidrop Combi dispenser (Thermo Scientific). […] Following 72 h growth, plates were sealed with parafilm and frozen at −80 °C overnight. Plates were thawed at room temperature for at least 4 h prior to LDH activity being measured. […] Plates were shaken to ensure mixing and absorbance at 650 nm was measured in an EnVision (PerkinElmer) plate reader after 30 min of incubation at room temperature. […] The equation used is sigmoidal dose response (variable slope), Y = bottom + (top − bottom)/(1 + 10((logEC50 − X) × Hill Slope)).

[6] = LDH activity of P. falciparum 3D7 parasites over 72 h, read-out: Pf 3D7 EC50 (SD)

| Structure (SMILES) | CC50 at 48 h [4] | EC50 [5, 6] | further results |
| --- | --- | --- | --- |
| O=C(NC1CC1)c1ccc(CN(Cc2ccccc2)C2CC2)cc1 [Compound 17, 4-((Benzyl(cyclopropyl)amino)methyl)-N-cyclopropylbenzamide] | > 40 µM | 140 nM | logD at 2 h [1]: 4; hepatocyte CLint at 1 μM (Rat hepatocyte stability): > 92 µL/min/1e6 cells; solubility at 2 h [2]: 44 µM (≈ 14.1 µg/mL); microsomal CLint at 1 h, 1 µM [3]: 72 µL/min/mg |
| CC(c1ccccc1)N(Cc1ccc(C(=O)NC2CC2)cc1)C1CC1 (stereo not drawn) [Compound 97, N-Cyclopropyl-4-((cyclopropyl(1-phenylethyl)amino)methyl)benzamide] | > 40 µM | 170 nM | logD at 2 h [1]: 4.2; hepatocyte CLint at 1 μM (Rat hepatocyte stability): > 92 µL/min/1e6 cells; solubility at 2 h [2]: 22 µM (≈ 7.36 µg/mL); microsomal CLint at 1 h, 1 µM [3]: 238 µL/min/mg |
| CN(C)c1cccc(CN(Cc2ccc(C(=O)NC3CC3)cc2)C2CC2)c1 [Compound 64, N-Cyclopropyl-4-((cyclopropyl(3-(dimethylamino)benzyl)amino)methyl)benzamide] | > 40 µM | 320 nM |  |
| O=C(NC1CC1)c1ccc(CN(Cc2ccccc2)C2CCC2)cc1 [Compound 22, 4-((Benzyl(cyclobutyl)amino)methyl)-N-cyclopropylbenzamide] | > 40 µM | 160 nM | logD at 2 h [1]: 3.8; hepatocyte CLint at 1 μM (Rat hepatocyte stability): > 92 µL/min/1e6 cells; solubility at 2 h [2]: 92 µM (≈ 30.8 µg/mL); microsomal CLint at 1 h, 1 µM [3]: 151 µL/min/mg |
| CC(C)N(Cc1ccccc1)Cc1ccc(C(=O)NC2CC2)cc1 [Compound 21, 4-((Benzyl(isopropyl)amino)methyl)-N-cyclopropylbenzamide] | > 40 µM | 160 nM | logD at 2 h [1]: 3.5; hepatocyte CLint at 1 μM (Rat hepatocyte stability): > 92 µL/min/1e6 cells; solubility at 2 h [2]: 140 µM (≈ 45.1 µg/mL); microsomal CLint at 1 h, 1 µM [3]: 76 µL/min/mg |
| O=C(NC1CCCC1)c1ccc(CN(Cc2ccc(Cl)cc2Cl)C2CC2)cc1 [Compound 39] | > 40 µM |  | EC50 ([5]; read-out: Pf 3D7 EC50 (SD), LDH activity of P. falciparum 3D7 parasites over 72 h): 1200 nM; fold loss in Pf 3D7 activity relative to W499 (2) [5]: 12 fold |
| COc1ccccc1CN(Cc1ccc(C(=O)NC2CC2)cc1)C1CC1 [Compound 57] | > 40 µM | 270 nM |  |
| O=C(NC1CC1)c1ccc(S(=O)(=O)N(Cc2ccccc2)C2CC2)cc1 [Compound 102, 4-(N-Benzyl-N-cyclopropylsulfamoyl)-N-cyclopropylbenzamide] | > 40 µM | 4800 nM |  |
| CC(C)(C)CN(Cc1ccc(C(=O)NC2CC2)cc1)C1CC1 [Compound 93] | > 40 µM | 460 nM |  |
| O=C(NC1CC1)c1ccc(CN(Cc2cc(F)cc(F)c2)C2CC2)cc1 [Compound 74] | > 40 µM | 220 nM |  |
| CC(C)N(Cc1ccc(C(=O)NC2CC2)cc1)C1CC1 [Compound 91, N-Cyclopropyl-4-((cyclopropyl(isopropyl)amino)methyl)benzamide] | > 40 µM | 2600 nM |  |
| COc1cc(OC)c(CN(Cc2ccc(C(=O)NC3CC3)cc2)C2CC2)c(OC)c1 [Compound 83, N-Cyclopropyl-4-((cyclopropyl(2,4,6-trimethoxybenzyl)amino)methyl)benzamide] | > 40 µM | 2500 nM |  |
| O=C(NC1CC1)c1ccc(CN(Cc2c(Cl)cc(Cl)cc2Cl)C2CC2)cc1 [Compound 78, N-Cyclopropyl-4-((cyclopropyl(2,4,6-trichlorobenzyl)amino)methyl)benzamide] | > 40 µM | 100 nM |  |
| O=C(NC1CC1)c1ccc(CN(Cc2ccc(F)c(F)c2)C2CC2)cc1 [Compound 73] | > 40 µM | 220 nM |  |
| CC(C)NC(=O)c1ccc(CN(Cc2ccc(Cl)cc2Cl)C2CC2)cc1 [Compound 33] | > 40 µM | 690 nM |  |
| CC(c1ccc(C(=O)NC2CC2)cc1)N(Cc1ccccc1)C1CC1 (stereo not drawn) [Compound 98, 4-(1-(Benzyl(cyclopropyl)amino)ethyl)-N-cyclopropylbenzamide] | > 40 µM | 340 nM | fold decrease in Pf 3D7 activity relative to 17 ([5]; ratio of EC50 to compound 17): 2 fold |
| CCCN(Cc1ccccc1)Cc1ccc(C(=O)NC2CC2)cc1 [Compound 26, 4-((Benzyl(propyl)amino)methyl)-N-cyclopropylbenzamide] | > 40 µM | 130 nM | logD at 2 h [1]: 3.7; hepatocyte CLint at 1 μM (Rat hepatocyte stability): > 92 µL/min/1e6 cells; solubility at 2 h [2]: 83 µM (≈ 26.8 µg/mL); microsomal CLint at 1 h, 1 µM [3]: 98 µL/min/mg |
| CN(C)c1ccc(CN(Cc2ccc(C(=O)NC3CC3)cc2)C2CC2)cc1 [Compound 63, N-Cyclopropyl-4-((cyclopropyl(4-(dimethylamino)benzyl)amino)methyl)benzamide] | > 40 µM | 530 nM |  |
| O=C(NC1CC1)c1ccc(CN(Cc2ccc(C(F)(F)F)cc2)C2CC2)cc1 [Compound 53] | > 40 µM | 110 nM |  |
| O=C(NC1CC1)c1ccc(CN(CC2CCCCC2)C2CC2)cc1 [Compound 96] | > 40 µM | 240 nM |  |
| O=C(NC1CC1)c1ccc(CN(CC2CCC2)C2CC2)cc1 [Compound 94] | > 40 µM | 520 nM |  |
| O=C(NC1CC1)c1ccc(CN(Cc2ccccc2)C2CC2)cn1 [Compound 103, 5-((Benzyl(cyclopropyl)amino)methyl)-N-cyclopropylpicolinamide] | > 40 µM | 7600 nM |  |
| O=C(NC1CCC1)c1ccc(CN(Cc2ccc(Cl)cc2Cl)C2CC2)cc1 [Compound 38] | > 40 µM | 480 nM | fold loss in Pf 3D7 activity relative to W499 (2) [5]: 4 fold |
| CN(C)CCNC(=O)c1ccc(CN(Cc2ccc(Cl)cc2Cl)C2CC2)cc1 [Compound 35] | 9.3 µM | 7600 nM |  |
| O=C(NC1CC1)c1ccc(CN(Cc2ccccc2)C2CC2)nc1 [Compound 104, 6-((Benzyl(cyclopropyl)amino)methyl)-N-cyclopropylnicotinamide] | > 40 µM | 3500 nM |  |
| O=C(NC1CC1)c1ccc(CN(Cc2cc(Cl)cc(Cl)c2)C2CC2)cc1 [Compound 77] | > 40 µM | 230 nM |  |
